Test results published in patent US9840498B2, “Substituted quinazolin-4-one derivatives” (NOVARTIS AG, priority 2013, dated 2017).

molecular target: PI3K gamma (Homo sapiens (Human), UniProt P48736); test: Biochemical assay for PI3Kgamma (Adapta TR-FRET format); settings: enzymatic assay
Text: For the enzymatic assays, the preparation of PI3K gene constructs, protein expression and purification for HTS are described in WO2012/004299. […] The TR-FRET Adapta™ Universal Kinase Assay Kit was purchased from Invitrogen Corporation (Carlsbad/CA, USA) (Cat. No. PV5099). The kit contains the following reagents: Adapta Eu-anti-ADP Antibody (Europium labeled anti-ADP antibody in HEPES buffered saline, Cat. No. PV5097), Alexa Fluor® 647-labeled ADP tracer (Alexa Fluor® 647-labeled ADP tracer in HEPES buffered saline, Cat. No. PV5098), proprietary TR-FRET dilution buffer pH 7.5 (Cat. No. PV3574). PIK3CD substrate Phosphatidylinositol was obtained from Invitrogen (vesicules consisting of 2 mM PI in 50 mM HEPES pH7.5; Cat. No. PV5371). PIK3CG substrate Phosphatidylinositol-4,5-bisphosphate (PIP(4,5)2 was obtained from Invitrogen (PIP2:PS large unilamellar vesicules consisting of 1 mM PI P2: 19 mM PS in 50 mM HEPES pH7.5, 3 mM MgCl2, 1 mM EGTA; Cat. No. PV5100). Time-Resolved Fluorescence Resonance Energy Transfer (TR-FRET) is a technology based on energy transfer between two adjacent dyes, from an excited electron in one dye (the donor) to an electron of an adjacent dye (the acceptor) through resonance, then released as a photon. This energy transfer is detected by an increase in the fluorescence emission of the acceptor, and a decrease in the fluorescence emission of the donor. TR-FRET assays for protein kinases use a long-lifetime lanthanide Terbium or Europium chelates as the donor species which overcome interference from compound autofluorescence or light scatter from precipitated compounds, by introducing a delay after excitation by a flashlamp excitation source. Results are often expressed as a ratio of the intensities of the acceptor and donor fluorophores. The ratiometric nature of such a value corrects for differences in assay volumes between wells, as well as corrects for quenching effects due to colored compounds. The Adapta™ assay can be divided into two phases: a kinase reaction phase and an ADP detection phase. In the kinase reaction phase, all kinase reaction components are added to the well and the reaction is allowed to incubate for a set period of time specific for each kinase. After the reaction, a detection solution of Eu-labeled anti-ADP antibody, Alexa Fluor® 647-labeled ADP tracer, and EDTA (to stop the kinase reaction) are added to the assay well. ADP formed by the kinase reaction will displace the Alexa Fluor® 647-labeled ADP tracer from the antibody, resulting in a decrease in TR-FRET signal. In the presence of an inhibitor, the amount of ADP formed by the kinase reaction is reduced, and the resulting intact antibody-tracer interaction maintains a high TR-FRET signal. In the Adapta™ assay, the donor (Europium-anti-ADP antibody) is excited at 340 nm and will transfer its energy to the acceptor (Alexa Fluor® 647-labeled ADP tracer). The emission from the Alexa Fluor® 647 can be monitored with a filter centered at 665 nm because it is located between the emission peaks of the donor, which is measured at 615/620 nm. 50 nL of compound dilutions were dispensed onto white 384-well small volume polystyrene plate as described in section 2.2. Then 5 μL of PI3Kgamma and PI3Kdelta and lipid substrate (PI or PIP2:PS) followed by 5 μL of ATP (final assay volume 10 μL) are incubated at RT. […] Reactions were stopped with 5 μL of a mixture of EDTA containing the Eu-labeled anti-ADP antibody and the Alexa Fluor® 647-labeled ADP tracer in TR-FRET dilution buffer (proprietary to IVG). Plates are read 15 to 60 mins later in a Synergy2 reader using an integration time of 0.4 seconds and a delay of 0.05 seconds. […] The control for the 0% inhibition was given by the solvent vehicle of the compounds (90% DMSO in H2O). Data are analyzed using Excel fit software or Graphpad Prism. EC50 values were derived by fitting a sigmoidal dose-response curve to a plot of assay readout over inhibitor concentration. […]

PI3K gamma, sequence (P48736 whole entry): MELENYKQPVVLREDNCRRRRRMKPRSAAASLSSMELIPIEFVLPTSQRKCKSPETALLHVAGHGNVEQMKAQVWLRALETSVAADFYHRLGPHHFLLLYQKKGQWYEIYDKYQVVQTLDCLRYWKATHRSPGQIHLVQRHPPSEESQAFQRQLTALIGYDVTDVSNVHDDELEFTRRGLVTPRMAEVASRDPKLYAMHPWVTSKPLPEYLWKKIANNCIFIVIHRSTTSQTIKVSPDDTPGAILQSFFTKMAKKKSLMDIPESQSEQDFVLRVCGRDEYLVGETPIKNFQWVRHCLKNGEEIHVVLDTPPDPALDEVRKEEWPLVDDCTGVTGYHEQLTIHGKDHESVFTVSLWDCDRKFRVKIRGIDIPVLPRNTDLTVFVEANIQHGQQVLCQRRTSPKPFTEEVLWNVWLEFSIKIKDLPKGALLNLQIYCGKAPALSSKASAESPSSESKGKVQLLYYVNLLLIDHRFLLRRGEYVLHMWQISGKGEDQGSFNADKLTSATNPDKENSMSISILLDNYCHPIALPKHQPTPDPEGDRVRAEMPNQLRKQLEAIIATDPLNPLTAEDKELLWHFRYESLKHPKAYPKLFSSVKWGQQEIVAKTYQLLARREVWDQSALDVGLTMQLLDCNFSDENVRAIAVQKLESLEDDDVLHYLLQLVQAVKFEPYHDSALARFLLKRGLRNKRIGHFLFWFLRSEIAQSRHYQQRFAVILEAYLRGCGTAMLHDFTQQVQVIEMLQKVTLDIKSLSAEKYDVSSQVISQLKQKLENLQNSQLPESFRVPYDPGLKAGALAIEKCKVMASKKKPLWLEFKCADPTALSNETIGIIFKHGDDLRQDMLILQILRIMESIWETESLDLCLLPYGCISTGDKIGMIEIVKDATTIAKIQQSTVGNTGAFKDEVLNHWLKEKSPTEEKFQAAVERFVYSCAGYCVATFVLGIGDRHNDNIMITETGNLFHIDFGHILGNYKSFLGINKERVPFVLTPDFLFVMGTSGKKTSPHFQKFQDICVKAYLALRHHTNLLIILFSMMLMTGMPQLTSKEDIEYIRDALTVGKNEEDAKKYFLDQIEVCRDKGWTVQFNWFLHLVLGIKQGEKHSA

SMILES | IC50 [nM]
Cn1cc(-c2c(F)ccc3nc([C@@H]4CCCN4c4ncnc(N)c4C#N)n(-c4ccccc4)c(=O)c23)cn1 [Example 5, (S)-4-Amino-6-(2-(6-fluoro-5-(1-methyl-1H-pyrazol-4-yl)-4-oxo-3-phenyl-3,4-dihydroquinazolin-2-yl)pyrrolidin-1-yl)pyrimidine-5-carbonitrile] | 85
COc1ncc(-c2cccc3nc([C@@H]4C[C@H](O)CN4c4nc(N)nc(C)c4C#N)n(-c4ccccc4)c(=O)c23)cn1 [Example 22, 2-Amino-4-((2S,4S)-4-hydroxy-2-(5-(2-methoxypyrimidin-5-yl)-4-oxo-3-phenyl-3,4-dihydroquinazolin-2-yl)pyrrolidin-1-yl)-6-methylpyrimidine-5-carbonitrile] | 130
CO[C@H]1C[C@@H](c2nc3cccc(-c4cnn(C)c4)c3c(=O)n2-c2ccccc2)N(c2nc(N)nc3[nH]cnc23)C1 [Example 11, 2-((2S,4S)-1-(2-Amino-9H-purin-6-yl)-4-methoxypyrrolidin-2-yl)-5-(1-methyl-1H-pyrazol-4-yl)-3-phenylquinazolin-4(3H)-one] | 230
Cc1nc(N)nc(N2CCC[C@H]2c2nc3cccc(-c4cnn(C)c4)c3c(=O)n2-c2ccccc2)c1C#N [Example 13, (S)-2-Amino-4-methyl-6-(2-(5-(1-methyl-1H-pyrazol-4-yl)-4-oxo-3-phenyl-3,4-dihydroquinazolin-2-yl)pyrrolidin-1-yl)pyrimidine-5-carbonitrile] | 120
Cc1nc(N)nc(N2C[C@@H](O)C[C@H]2c2nc3cccc(-c4cnn(CCO)c4)c3c(=O)n2-c2ccccc2)c1C#N [Example 28, 2-Amino-4-((2S,4S)-4-hydroxy-2-(5-(1-(2-hydroxyethyl)-1H-pyrazol-4-yl)-4-oxo-3-phenyl-3,4-dihydroquinazolin-2-yl)pyrrolidin-1-yl)-6-methylpyrimidine-5-carbonitrile] | 21
Cc1nc(N)nc(N2CCC[C@H]2c2nc3cccc(-c4cncnc4)c3c(=O)n2-c2ccccc2)c1C#N [Example 17, (S)-2-Amino-4-methyl-6-(2-(4-oxo-3-phenyl-5-(pyrimidin-5-yl)-3,4-dihydroquinazolin-2-yl)pyrrolidin-1-yl)pyrimidine-5-carbonitrile] | 940

Other lines, results leading:

IC50 [nM] | SMILES
390 | Cc1ncc(-c2cccc3nc([C@@H]4CCCN4c4nc(N)nc(C)c4C#N)n(-c4ccccc4)c(=O)c23)cn1 [Example 19, (S)-2-Amino-4-methyl-6-(2-(5-(2-methylpyrimidin-5-yl)-4-oxo-3-phenyl-3,4-dihydroquinazolin-2-yl)pyrrolidin-1-yl)pyrimidine-5-carbonitrile]
24 | Cc1nc(N)nc(N2C[C@@H](F)C[C@H]2c2nc3cccc(-c4cnn(C)c4)c3c(=O)n2-c2ccccc2)c1C#N [Example 30, 2-Amino-4-((2S,4S)-4-fluoro-2-(5-(1-methyl-1H-pyrazol-4-yl)-4-oxo-3-phenyl-3,4-dihydroquinazolin-2-yl)pyrrolidin-1-yl)-6-methylpyrimidine-5-carbonitrile]
750 | Cn1cc(-c2c(F)ccc3nc([C@@H]4C[C@H](O)CN4c4ncnc(N)c4C#N)n(-c4ccccc4)c(=O)c23)cn1 [Example 8, 4-Amino-6-((2S,4S)-2-(6-fluoro-5-(1-methyl-1H-pyrazol-4-yl)-4-oxo-3-phenyl-3,4-dihydroquinazolin-2-yl)-4-hydroxypyrrolidin-1-yl) pyrimidine-5-carbonitrile]
38 | CO[C@H]1C[C@@H](c2nc3cccc(-c4cnn(C)c4)c3c(=O)n2-c2ccccc2)N(c2nc(N)nc(C)c2C#N)C1 [Example 10, 2-Amino-4-((2S,4S)-4-methoxy-2-(5-(1-methyl-1H-pyrazol-4-yl)-4-oxo-3-phenyl-3,4-dihydroquinazolin-2-yl)pyrrolidin-1-yl)-6-methylpyrimidine-5-carbonitrile]
140 | CCOc1ncc(-c2cccc3nc([C@@H]4CCCN4c4nc(N)nc(C)c4C#N)n(-c4ccccc4)c(=O)c23)cn1 [Example 32, (S)-2-Amino-4-(2-(5-(2-ethoxypyrimidin-5-yl)-4-oxo-3-phenyl-3,4-dihydroquinazolin-2-yl)pyrrolidin-1-yl)-6-methylpyrimidine-5-carbonitrile]
81 | Cc1nc(N)nc(N2C[C@@H](O)C[C@H]2c2nc3cccc(-c4cccnc4)c3c(=O)n2-c2ccccc2)c1C#N [Example 24, 2-Amino-4-((2S,4S)-4-hydroxy-2-(4-oxo-3-phenyl-5-(pyridin-3-yl)-3,4-dihydroquinazolin-2-yl)pyrrolidin-1-yl)-6-methylpyrimidine-5-carbonitrile]
330 | Cc1ccccc1-n1c([C@@H]2CCCN2c2ncnc(N)c2C#N)nc2cccc(-c3cnn(C)c3)c2c1=O [Example 14, (S)-4-Amino-6-(2-(5-(1-methyl-1H-pyrazol-4-yl)-4-oxo-3-(otolyl)-3,4-dihydroquinazolin-2-yl)pyrrolidin-1-yl)pyrimidine-5-carbonitrile]
